This is an account of results in patent US20230144023A1, “USE OF BUTYLPHTHALIDE AND DERIVATIVE THEREOF” (CSPC NBP PHARMACEUTICAL CO., LTD, priority 2020, published 2023).

Series [1] can be described thus: PK of total paclitaxel in plasma, JIMT-1 tumor-bearing mice (Example 4). The class given is in vivo, Nu/Nu mice. To be noted: NBP 6, 20, 60 mg/kg bid gavage with ab-PTX 15 mg/kg i.v. The procedure:
Administration period: 28 days. Administration volume: 10 mL/kg.
The administration period was 28 days. The administration volume was 10 mL/kg.

Another series concerns Jeko-1. Briefly: In vitro tumor cell proliferation, MTT (Example 7). To be noted: Homo sapiens, JeKo-1, 72 h.
The test system of series [2] is bortezomib chemotherapy-induced peripheral neuropathy. Briefly: Bortezomib chemotherapy-induced peripheral neuropathy in rats (Example 6). The conditions noted are these: compared with the model group. The class given is in vivo, SD (Sprague Dawley) rats. The procedure: (The modeling and administration time are shown in FIG. 11. The animal grouping, the administration method, and the doses are detailed in Table 14). […] (2) Thermal pain threshold: measurements were performed on days 0, 7, 14, and 21. Method: IITC Life Science Electronic Von Frey Anesthesio meter was used and the intensity of the light source was adjusted to obtain a thermal pain threshold baseline of about 3-6 s. […] The rats were placed in a plastic compartment on a glass plate, to make the planta centers of the rats be exposed to the light source. […] (3) Mechanical Stimulus Pain Threshold: Measurements were Performed on Days −1, 6, 13, and 20. Method: the rats were placed in a plastic compartment on a wire mesh, left to stand still for 15 min, stimulated using a stimulation probe with a diameter of 0.4 mm of the IITC Life Science Electronic Von Frey Anesthesio meter at the planta centers of the rats by gradually increasing the force until reflexive withdrawal of the rats.

Where two headings read alike, the source gives them in different places.

Description for Jeko-1: This experiment includes a monotherapy group of Bortezomib, a combined therapy group (Bortezomib/NBP), and a monotherapy group of NBP. Different drug concentration gradients were set for each group.
Monotherapy group of Bortezomib: (1) MM.1S, Jeko-1, and HT29 cells: Bortezomib was 1.5× serially diluted from an initial concentration of 20 nM to 8 concentrations: 20, 13.33, 8.89, 5.93, 3.95, 2.63, 1.76, and 1.17 nM, respectively; (2) A549 cells: Bortezomib was 2×serially diluted from an initial concentration of 200 nM to 8 concentrations: 200, 100, 50, 25, 12.5, 6.25, 3.13, and 1.56 nM, respectively; and (3) DU145 cells: Bortezomib was 2× serially diluted from an initial concentration of 100 nM to 8 concentrations: 100, 50, 25, 12.5, 6.25, 3.13, 1.56, and 0.78 nM, respectively.
Monotherapy group of NBP: NBP was 2× serially diluted from an initial concentration of 480 μM to 8 concentrations: 480, 240, 120, 60, 30, 15, 7.5, and 3.75 μM, respectively.
The action time of the drug was 72 h.
A certain number of conventionally cultured cells in logarithmic growth phase were inoculated in a 96-well plate with 100 μL per well. […] For adherent cells HT29, A549, and DU145, the above drugs were added 24 h after adherence. 3 replicate wells were set for each concentration of each drug, and blank wells (only culture medium was present, and no tumor cells were inoculated) and normal wells (a culture medium inoculated with tumor cells, drug concentration was 0) were set. The drugs functioned for 72 h, then MTT working solution (5 mg/mL) was added at 20 μL per well; after functioning at 37° C. for 4 h, the supernatant was removed, 150 μL of DMSO (analytically pure) was added; the mixture was fully mixed using a microplate oscillator, the plate was wiped clean, and the optical density (OD) at 550 nm was measured using a microplate reader.
The cell growth inhibition rate was computed using the following equation:
Inhibition rate (%)=(OD valuenormal well−OD valueadministration well)/(OD valuenormal well−OD valueblank well)×100%
Based on the inhibition rate of each concentration, the median inhibitory concentration IC50 of the drug was computed using SPSS19.0.

With `CCCCC1OC(=O)c2ccccc21` (centres unmarked) [NBP, 3-n-butylphthalide], the “influence of combined butylphthalide on the pharmacokinetic behavior of paclitaxel in the plasma” value in series [1] was “did not affect”. In addition, the inhibition – broadly, the drop in the measured response relative to a control, in per cent – at 30 µM is -7.67% with Jeko-1 (read-out: Inhibition rate, First dose); -11.5 ± 6.32% with Jeko-1 (read-out: Inhibition rate, Mean ± SD); -18.8% with Jeko-1 (read-out: Inhibition rate, Second dose); -8.11% in the series on Jeko-1 (read-out: Inhibition rate, Third dose). Also, the “mechanical stimulus pain threshold (decrease in model rats)” value in series [2] (day 20, NBP 10 and 30 mg/kg bid) is “significantly reversed”. Moreover, the “body weights of the rats” value in series [2] (day 21, NBP 3, 10 and 30 mg/kg bid gavage) is “not obviously changed”. Further, the “thermal pain threshold (decrease in model rats)” value in series [2] (day 21, NBP 3, 10 and 30 mg/kg bid) is on record as “significantly reversed”.
